Source: patent US9597407B2, “Targeted antimicrobial moieties” (C3 Jian, Inc., priority 2009, dated 2017)
“Also recorded” adds a separate entry of the source.

tested on: bacteria; assay: Binding of targeting peptides to microorganisms (Table 3); settings: data not shown

Substance	bacterial binding
DAANEA-GGG [BL-1]	no bacterial binding

same assay, conditions: microorganism bound by the targeting peptide; binding in aqueous buffers chosen by peptide solubility, preferably 1x PBS

Substance	Target(s)
PF-194 (MKGNKLATAHEQPVKNSAPPL; Peptide with targeting and/or antimicrobial activity)	C. jeikeium
PF-262 (DPHSEIDVTRYCQLHHFTCQTMQISEREFHYLIETQ; Peptide with targeting and/or antimicrobial activity)	S. mutans; also recorded: S. epidermidis; also recorded: M. luteus; also recorded: E. coli; also recorded: P. aeruginosa; also recorded: A. baumannii
PF-236 (KEIRTATVAELNAKRRLTSAEQALAEVS; Peptide with targeting and/or antimicrobial activity)	S. mutans; also recorded: S. epidermidis; also recorded: E. coli; also recorded: C. albicans; also recorded: S. pneumoniae; also recorded: E. faecalis
PF-267 (SDDKRTD; Peptide with targeting and/or antimicrobial activity)	M. luteus
PF-132 (RPGDGAAEQGRSR; Peptide with targeting and/or antimicrobial activity)	S. epidermidis; also recorded: C. jeikeium
PF-359 (MTVMEDPGSEQRNKIQSPMKGEDFSALFGR; Peptide with targeting and/or antimicrobial activity)	S. epidermidis and B. fragilis and P. aeruginosa and C. albicans and MRSA and E. faecalis and C. jeikeium
PF-288 (IYQLLNIEYSEDD; Peptide with targeting and/or antimicrobial activity)	S. mutans; also recorded: E. coli
PF-187 (EIQKIAKGVSGQVYGPSRQITISKKR; Peptide with targeting and/or antimicrobial activity)	S. epidermidis and M. luteus and E. coli and MRSA
PF-268 (EVLLSDLRPDIFSET; Peptide with targeting and/or antimicrobial activity)	S. mutans
PF-259 (LPFSKIGRRVSYKKKDVLKYEQSKTVLNTAQLATV; Peptide with targeting and/or antimicrobial activity)	S. epidermidis; also recorded: P. aeruginosa; also recorded: A. baumannii
PF-195 (EMAEGSADDRLRKTPRDC; Peptide with targeting and/or antimicrobial activity)	S. epidermidis; also recorded: M. luteus; also recorded: E. faecalis; also recorded: C. jeikeium
PF-174 (RGGDSPARRRPGLAGPGGPG; Peptide with targeting and/or antimicrobial activity)	S. epidermidis; also recorded: P. aeruginosa; also recorded: C. jeikeium
PF-185 (RPAQARQGPGGLIADRHIRA; Peptide with targeting and/or antimicrobial activity)	E. coli; also recorded: P. aeruginosa
PF-367 (TKTPGTFTPGTGIQKTAVPL; Peptide with targeting and/or antimicrobial activity)	B. subtilis

same assay, conditions: microorganism the targeting peptide binds; binding in aqueous buffers that varied with peptide solubility, preferably 1x PBS

Substance	Target(s)
1T-270 (VHEFDIQKILQNR; Peptide with targeting and/or antimicrobial activity) [Peptide 1T-270]	F. nucleatum; also recorded: S. mutans; also recorded: S. oralis; also recorded: S. sanguinis
1T-215 (VCFKDISVFLSPFRGQEVLFCGKAKHSLIYVIGT; Peptide with targeting and/or antimicrobial activity) [Peptide 1T-215]	S. sanguinis
PF-044 (KLKKYIHKPD; Peptide with targeting and/or antimicrobial activity)	S. epidermidis and M. luteus and MRSA and C. jeikeium
1T-193 (LMIFDKHANLKYKYGNRSFGVEAIM; Peptide with targeting and/or antimicrobial activity) [Peptide 1T-193]	S. sanguinis
PF-014 (HPTDNKHN; Peptide with targeting and/or antimicrobial activity)	E. coli; also recorded: C. jeikeium
1T-218 (KLIFAALGLVFLLIGLRDSRSK; Peptide with targeting and/or antimicrobial activity) [Peptide 1T-218]	F. nucleatum; also recorded: S. sanguinis
1T-195 (AASGFTYCASNGVWHPY; Peptide with targeting and/or antimicrobial activity) [Peptide 1T-195]	S. mutans

same assay, conditions: peptide binding in aqueous buffers that varied depending on peptide solubility; preferably 1x PBS

Substance	Target(s) (microorganisms bound by the targeting peptide)	Target(s) (microorganism bound by the targeting peptide)
PF-487 (MYKAIAVLAMTIMAFFIFVYPFFIVGLILG; Peptide with targeting and/or antimicrobial activity)	S. mutans; also recorded: E. coli	–
PF-765 (YLYWEVEHKPIIAKRDAYYAQLRKQKEIEEGA; Peptide with targeting and/or antimicrobial activity)	–	S. epidermidis and M. luteus and E. coli and MRSA and E. faecalis and C. jeikeium
PF-717 (PQSEVTFENIYAPKANGGGLYGI; Peptide with targeting and/or antimicrobial activity)	–	E. coli
PF-463 (MVILVFSLIFIFTDNYLVYQSKSIKEDVMI; Peptide with targeting and/or antimicrobial activity)	S. epidermidis; also recorded: E. coli; also recorded: P. aeruginosa; also recorded: C. albicans; also recorded: S. pneumoniae; also recorded: E. faecalis; also recorded: M. smegmatis	–
PF-733 (VISRQMGSEAVLELFIIM; Peptide with targeting and/or antimicrobial activity)	–	S. mutans; also recorded: E. coli
PF-792 (ALHASGIQAI; Peptide with targeting and/or antimicrobial activity)	–	S. mutans
PF-768 (GFRGGKRGGARG; Peptide with targeting and/or antimicrobial activity)	–	S. epidermidis; also recorded: S. pneumoniae; also recorded: E. faecalis; also recorded: C. jeikeium
PF-S026 (TELKYNGEEYLLLTQRDILAVIEK; Peptide with targeting and/or antimicrobial activity)	–	S. epidermidis and MRSA and C. jeikeium
PF-750 (AESSPAKTTA; Peptide with targeting and/or antimicrobial activity)	–	M. luteus; also recorded: C. jeikeium
PF-504 (ILSVELSTKTSASGS; Peptide with targeting and/or antimicrobial activity)	S. mutans; also recorded: E. coli	–
PF-C259 (AEIQPHCLSVL; Peptide with targeting and/or antimicrobial activity)	–	F. nucleatum; also recorded: S. mutans

same assay, conditions: peptide binding in aqueous buffers varied by peptide solubility; preferably 1x PBS

Substance	Target(s) (microorganism bound by the targeting peptide)
1T-47 (VIKISVPGQVQMLIP; Peptide with targeting and/or antimicrobial activity) [Peptide 1T-47]	S. mutans; also recorded: S. epidermidis; also recorded: P. aeruginosa
1T-3 (VLGIAGGLDAYGELVGGN; Peptide with targeting and/or antimicrobial activity) [Peptide 1T-3]	S. mutans; also recorded: S. gordonii
1T-32 (VSFLAGWLCLGLAAWRLGNA; Peptide with targeting and/or antimicrobial activity) [Peptide 1T-32]	S. mutans
1T-40 (QRVSLWSEVEHEFR; Peptide with targeting and/or antimicrobial activity) [Peptide 1T-40]	S. mutans; also recorded: P. aeruginosa
1T-54 (RWVSCNPSWRIQ; Peptide with targeting and/or antimicrobial activity) [Peptide 1T-54]	S. epidermidis; also recorded: C. xerosis; also recorded: C. striatum; also recorded: P. aeruginosa
1T-112 (SDNDGKLILGTSQ; Peptide with targeting and/or antimicrobial activity) [Peptide 1T-112]	S. gordonii
1T-69 (ILSQEADRKKLF; Peptide with targeting and/or antimicrobial activity) [Peptide 1T-69]	S. mutans; also recorded: P. aeruginosa
1T-25 (VGLDVSVLVLFFGLQLLSVLLGAMIR; Peptide with targeting and/or antimicrobial activity) [Peptide 1T-25]	S. aureus; also recorded: S. epidermidis; also recorded: C. xerosis; also recorded: C. striatum; also recorded: P. aeruginosa
1T-10 (SPAGLPGDGDEA; Peptide with targeting and/or antimicrobial activity) [Peptide 1T-10]	M. xanthus
1T-66 (DTDCLSRAYAQRIDELDKQYAGIDKPL; Peptide with targeting and/or antimicrobial activity) [Peptide 1T-66]	S. mutans; also recorded: S. aureus; also recorded: S. epidermidis; also recorded: C. jeikeium; also recorded: C. xerosis; also recorded: C. striatum; also recorded: P. aeruginosa
1T-96 (VAGACAQPFGGQ; Peptide with targeting and/or antimicrobial activity) [Peptide 1T-96]	S. gordonii; also recorded: S. mitis; also recorded: S. mutans; also recorded: S. oralis; also recorded: S. sanguinis
1T-121 (FAKETGFGIGGAQEGWWIIADIYGPNPF; Peptide with targeting and/or antimicrobial activity) [Peptide 1T-121]	S. gordonii; also recorded: S. mitis; also recorded: S. mutans; also recorded: S. oralis; also recorded: S. salivarious; also recorded: S. sanguinis
1T-42 (TVLDWLSLALATGLFVYLLVALLRADRA; Peptide with targeting and/or antimicrobial activity) [Peptide 1T-42]	S. aureus; also recorded: S. epidermidis; also recorded: C. xerosis; also recorded: C. striatum; also recorded: P. aeruginosa
